Laboratory results taken from patent publication US20180353429A1, “PRODUCT COMPRISING HYDROLIZED COLLAGEN AND AT LEAST ONE AMORPHOUS MICRONIZED DRUG, PROCESS FOR THE PREPARATION THEREOF AND RELATED USES IN MEDICAL FIELD” (S.B.M. S.r.l., priority 2015, published 2018).
Read-outs that look alike come from different tables or passages of the source. Blank lines part the entries; values can stand above or below the molecule they belong to.

Tests used:
[1] = amorphized by co-grinding with β-cyclodextrin or other polymers; cited from earlier work
thromboxane B2 = test: Plasma thromboxane B2 / urinary thromboxane metabolites after ASA in healthy volunteers; type: in vivo; conditions: plasma and urine ASA and urinary thromboxane metabolites, 7 days
Protocol: This effect was accompanied by a considerable therapeutic effectiveness, given that the plasma peak of thromboxane B2, a biomarker of the anti-aggregation effectiveness of ASA, came 1.5 hours earlier than with the crystalline form of the drug (FIG. 4). […] This fact was confirmed by examining both the plasma and urine concentrations of ASA and of the urinary metabolites of thromboxane after 7 days of administration (FIG. 5).

[2] = Pharmacokinetics of ASA given orally or sublingually in healthy volunteers (plasma ASA by LC-MS); type: in vivo; conditions: human, tablet; for AUC(0-t): read-out: AUC (0-24 h)
Protocol: The pharmaceutical composition obtained by co-grinding a micronized drug with gelatine was tested in healthy volunteers in order to verify whether the product, in its amorphized form, brought advantages from the standpoint of bioavailability and an enhanced clinical effectiveness associated with an improvement in the safety profile. These tests confirmed that the co-grinding process and simultaneous amorphization of ASA with collagen enables a better absorption of the drug without compromising its effectiveness.
In particular, the administration of the pharmaceutical composition of ASA+collagen after co-grinding in tablet form at doses of 50 and 100 mg given sublingually and orally in groups of 20 healthy volunteers brought about an increase in the plasma concentrations of ASA, determined using the LC-MS method, compared to the administration of equivalent doses of ASA in crystalline form administered sublingually or orally.

gastric mucosa = test: Gastroerosive activity of oral ASA on the gastric mucosa of Wistar rats (ulcer index, histopathology); type: in vivo; conditions: ASA 400 mg/Kg oral
Protocol: In view of this, it was decided to test the effect of the micronization of ASA (400 mg/Kg) and co-grinding thereof with collagen through oral administration on the mucosa of Wistar rats weighing 210 g and compare it with the effects of the administration of ASA (400 mg/Kg) in its non-micronized form.
In particular, a calculation was made of the effect of ASA on the so-called “ulcer score”, according to a method that differentiates the damage due to the acute administration of high doses of ASA given orally into classes of severity which range from the absence of lesions to the maximum score, which is equivalent to ulcers equal to or greater than 6 mm. Furthermore, an analysis was made of the effects of ASA, in the two formulations used, on the histopathological damage of the gastric mucosa after periodic acid Schiff/Alcian blue staining of the histological samples taken from the animals after the two treatments (FIG. 7).

Molecule: CC(=O)[O][Pt]([NH2])([Cl])([Cl])([NH]C1CCCCC1)[O]C(C)=O [JM216, bis-acetato-ammine-dichloro-cyclohexylamine-platinum (IV)]
- water solubility [1]: greater water solubility

Molecule: collagen
- effects of collagen on its own (thromboxane B2): no significant effects

- Cmax ([2]; ASA 50 mg oral): 269 ± 85.4 ng/mL
- AUC(0-t) ([2]; ASA 50 mg oral): 532 ± 123 ng·h/mL
- Cmax ([2]; ASA 50 mg sublingual): 314 ± 89.5 ng/mL
- AUC(0-t) ([2]; ASA 50 mg sublingual): 675 ± 75.6 ng·h/mL
- Cmax ([2]; ASA 100 mg oral): 460 ± 73.2 ng/mL
- Cmax ([2]; ASA 100 mg sublingual): 543 ± 68.3 ng/mL
Molecule: CC(=O)Oc1ccccc1C(=O)O [ASA n.m., acetylsalicylic acid]
- Ulcer index (gastric mucosa; listed as NM-ASA): 36.12 ± 4.2
- Ulcer index (gastric mucosa; listed as non-micronized ASA): 36.12±4.2
- histopathological damage of the gastric mucosa (gastric mucosa; periodic acid Schiff/Alcian blue staining): degeneration of cells of the gastric mucosa
